These are literature values, as cited in patent US20230346989A1, “FLUOROCARBON NANOEMULSIONS AND USES THEREOF IN IMAGING” (The Regents of the University of California, priority 2020, published 2023).

For one data set, the system named is tumors. The following applies: depending on the model; cited from earlier work.
For data set [1] the following is noted: in vivo; cited from earlier work.

Consider `C[C@H](NC(=O)c1c(N)nn2cccnc12)c1cc2cccc(C#Cc3cnn(C)c3)c2c(=O)n1-c1ccccc1` [IPI549], for which the “suppression of tumor growth” value with tumors is 50-100%.

For `FC(F)(F)C(F)(F)C(F)(F)C(F)(F)C(F)(F)C(F)(F)C(F)(F)C(F)(F)Br` [PFOB, perfluorooctyl bromide], in data set [1], the organ-retention half-life is 122 h.
